Consider three compounds from patent publication US12496284B2, “Use of itaconate and its derivatives/analogues to induce hair growth” (The Johns Hopkins University, priority 2019, dated 2025).

Each structure is given as a SMILES string. Entries after “also recorded” stand apart in the source; their conditions may differ.

The nature of series [1]: Mouse skin penetration in Alopecia model. In kind it is in vivo. The note with it: dose 5% w/v. An excerpt: Referring now to FIG. 12, mouse skin penetration in an Alopecia model for IS-100-142 (compound 5) (left panel) and monomethyl itaconate (right panel) is shown.
Series [2] relates to TLR3/IL6/STAT3 axis. The series can be described thus: Treatment of human keratinocytes (NHEKs) with itaconate prodrugs, poly(I:C) challenge, qRT-PCR. The note with it: NHEKs pre-treated 2 days, then poly(I:C) for 24 hours, mRNA by qRT-PCR, FIG. 4, FIG. 6. In kind it is cell-based. The protocol:
Neonatal human epidermal keratinocytes (NHEKs) isolates from neonatal foreskin were seeded at a density of 100,000 cells per well and were maintained in KGM supplemented with growth factors (KGM-GOLD Bullet kit, #192060). Prodrugs were reconstituted in DMSO. NHEKs were pre-treated with either vehicle (0.1% DMSO) or prodrug. After 2 days, NHEKs were treated with […] poly(I:C) for 24 hours.
Total RNA was isolated and purified from cultured NHEKs using the RNeasy Mini Kit (Qiagen, Valencia, CA, #74106). After assessing RNA purity and concentrations using a NanoDrop 2000 UV-Vis spectrophotometer, RNA was converted to cDNA using a reverse-transcription kit and random hexamer primers (Applied Biosystems, #4368814). mRNA expression was determined by qRT-PCR using gene-specific, fluorophore-based TaqMan probes and universal master mix (Applied Biosystems, #4366072). The qRT-PCR reactions were multiplexed using target and reference gene (RPLPO) probes. Relative mRNA fold changes were then quantified using the […] method.
Next, whether itaconate derivatives, such as itaconate prodrugs, have this same capacity was tested. To screen for compounds, those that behaved in vitro with similar properties to itaconate were evaluated. First, the molecular effect of dimethyl itaconate (DI) to blunt dsRNA (PIC; Polyinosinic:polycytidylic acid) effect at increasing TLR3, IL-6, and STAT3 expression was tested.
Next, the ability of synthesized itaconate prodrugs to behave similarly in the in vitro assay was tested. […] Methods are as above, but substituting the […].
For orientation: In qPCR the cycle at which signal appears reflects the starting amount.

Series [3] concerns C57BL6/J mice. The series can be described thus: Hair growth (telogen to anagen transition) after topical treatment of shaved mice. In kind it is in vivo. The note with it: for hair growth compared with JAK inhibitors: 3% each diluted in DMSO, topical, FIG. 9. How it is done:
All adult wild-type (C57BL6/J) mice were approximate 8.5 weeks old and obtained from Jackson Labs (#00664). All animals were maintained in an AAALAC (Accreditation of Laboratory Animal Care International)—approved facility at Johns Hopkins University. All experimental procedures were approved by the Institutional Animal Care and Use Committee at Johns Hopkins under the protocol #MO17M298.
(§1) Adult C57BL6/J mice were treated during the refractory period of hair dormancy (telogen) to allow for hair growth (anagen) re-initiation. To determine the anagen re-entry, mice were grossly observed for skin thickening and darkening. Mice were shaved on their dorsal side and the left half the skin was topically treated with either vehicle (DMSO) or prodrug (20% IS-100-142 (compound 5)) with the right side untreated. The treatment regimen was once every other day for a total of two treatment cycles.
In one aspect, the presently disclosed subject matter is directed to compounds that might be able to enhance hair growth. To this end, the ability of dimethyl itaconate to induce the transition from the resting phase of the hair cycle, telogen, to the growing phase of the hair cycle, anagen, in wild type mice was tested.
Finally, the ability of compound 5 to also induce hair growth as observed for DI was tested. […] Here mice were treated as above, except the left side was treated with either compound 5 or DMSO and the right side was left untreated. The small amount of hair growth in the DMSO treated mouse was from the natural anagen cycle beginning.
as §1, with “All adult wild-type (C57BL6/J) mice were approximate 8.5 weeks old and obtained from Jackson Labs. Animals were fed standard mouse diet. […] Adult” for “Adult”, “right” for “left”, “dimethyl itaconate (20%) or with 1% compound 5, 2% compound 5 or 5% compound 5” for “prodrug (20% IS-100-142 (compound 5))”, “left” for “right”, “or three treatments with similar results.” for “treatment cycles.”

On to `C=C(CC(=O)OC)C(=O)OCOC(=O)OC(C)C` [Compound 5], for which the “intact prodrug levels, skin versus plasma” value in series [1] (topical application in DMSO, FIG. 12 left panel) is recorded as “higher in skin versus plasma”. Moreover, the “monomethyl itaconate levels, skin versus plasma” value in series [1] (topical application of IS-100-142 in DMSO, FIG. 12 right panel) was “higher in skin versus plasma”. The entries for the “inhibition of dsRNA (poly(I:C)) effect at increasing TLR3, IL-6 and STAT3 expression (downstream gene targets TLR3, IL6, STAT3, WNT7B)” value in series [2] and in series [2] (listed as IS-100-142) were “potently inhibited the same dsRNA response as DI” and “inhibits JAK-STAT signaling most effectively”, respectively. Also, in series [3] (1%, 2% or 5% compound 5 topical on right half of skin, once every other day, two or three treatments, FIG. 8), the “transition of hair follicle from telogen to anagen (hair growth)” value is “promote transition of hair follicle from telogen (quiescence phase) to anagen (growing phase); also recorded: induces hair growth”. For the same compound, the “hair growth compared with JAK inhibitors” value in series [3] is “comparable levels as Ruxolitinib and Tofacitinib”. Further, in series [3] (20% compound 5 in DMSO, topical on left half of shaved dorsal skin, once every other day, two treatment cycles, FIG. 7), the hair growth entry is “induces hair growth”.

`C[C@@H]1CCN(C(=O)CC#N)C[C@@H]1N(C)c1ncnc2[nH]ccc12` [Tofacitinib, reference compound]: the “hair growth compared with JAK inhibitors” value in series [3] is given as “comparable levels”.

Regarding `C=C(CC(=O)OC)C(=O)OC` [dimethyl itaconate, reference compound], the “inhibition of dsRNA (poly(I:C)) effect at increasing TLR3, IL-6 and STAT3 expression (downstream gene targets TLR3, IL6, STAT3, WNT7B)” value in series [2] was “blunt dsRNA”; in series [2] (listed as DI), “potently inhibits those markers”. In addition, the “transition from telogen (resting phase) to anagen (growing phase) of the hair cycle” value in series [3] (20% dimethyl itaconate, wild type mice, FIG. 5) is on record as “potently induced this transition; also recorded: induces the transition”.
